From PMC9230623, “Design, Synthesis, In Vitro Biological Activity Evaluation and Stabilized Nanostructured Lipid Carrier Formulation of Newly Synthesized Schiff Bases-Based TMP Moieties” (Pharmaceuticals, 2022) come the findings set out here.

Like-named read-outs stand apart in the source and are kept apart here.

Data set [1] concerns MDA-MB-231 breast cancer cell line. Description: Cytotoxic assay against MDA-MB-231 breast cancer cell line. Type of data set: cell-based. The conditions noted are these: Homo sapiens. How it is done:
The newly prepared Schiff bases 2–5g were screened for their in vitro cytotoxic activity against the MDA-MB-231 breast cancer cell line taking CA-4 as a reference drug. […] In addition, further structure extension to give N-aryl hydrazinyl molecules 4a–5g produced compounds with considerable cytotoxic activity, which may give an indication that the aryl ring is important for cytotoxic activity. […]
Cytotoxic activity of the prepared schiff bases against MDA-MB-231 breast cell Line was determined according previously reported methods. (See Supplementary Materials—Appendix SB).

Data set [2] relates to normal breast cell line MCF-10A. As to the kind of experiment: Cytotoxic assay against normal breast cell line MCF-10A. It counts as cell-based. As to conditions: Homo sapiens, read-out: IC50 Value (μM) MCF-10A.
Setting [3] is: MDA-MB-231, mean of three independent replicates ± SE, read-out: IC50 Value (μM) MDA-MB-231.

The IC50 is the point on the concentration scale where inhibition reaches its midpoint. Broadly, the melting point is the temperature of the solid-liquid transition. Turning to `COc1cc(/C=C(\NC(=O)c2cc(OC)c(OC)c(OC)c2)C(=O)N/N=C/c2ccc(F)cc2)cc(OC)c1OC` [Compound 4a, N-((Z)-3-((E)-2-(4-Fluorobenzylidene)hydrazinyl)-3-oxo-1-(3,4,5-trimethoxyphenyl)prop-1-en-2-yl)-3,4,5-trimethoxybenzamide], the melting point was 201 to 203 °C. Further, the IC50 in data set [1] (setting [3]) came to 23.7 ± 1.13 µM.
`COc1cc(/C=C(\NC(=O)c2cc(OC)c(OC)c(OC)c2)C(=O)N/N=C/c2ccco2)cc(OC)c1OC` [Compound 3, N-((Z)-3-((E)-2-(Furan-2-ylmethylene)hydrazinyl)-3-oxo-1-(3,4,5-trimethoxyphenyl)prop-1-en-2-yl)-3,4,5-trimethoxybenzamide]: the melting point lay in the range of 212 to 214 °C. In data set [1] (setting [3]), the IC50 was 6.08 ± 0.42 µM.
Compound `COc1cc(/C=N/NC(=O)/C(=C/c2cc(OC)c(OC)c(OC)c2)NC(=O)c2cc(OC)c(OC)c(OC)c2)cc(OC)c1` [Compound 4k, N-((Z)-3-((E)-2-(3,5-Dimethoxybenzylidene)hydrazinyl)-3-oxo-1-(3,4,5-trimethoxyphenyl)prop-1-en-2-yl)-3,4,5-trimethoxybenzamide] yielded a melting point of 214 to 216 °C. The concentration for half-maximal inhibition (IC50) in data set [1] (setting [3]) came out at 4.8 ± 0.17 µM.
Regarding `COc1cc(/C=C(\NC(=O)c2cc(OC)c(OC)c(OC)c2)C(=O)N/N=C/c2ccc(O)cc2)cc(OC)c1OC` [Compound 4e, N-((Z)-3-((E)-2-(4-Hydroxybenzylidene)hydrazinyl)-3-oxo-1-(3,4,5-trimethoxyphenyl)prop-1-en-2-yl)-3,4,5-trimethoxybenzamide], in data set [1] (setting [3]), the IC50 was found to be 7.1 ± 1.02 µM.
`COc1ccc(/C(C)=N/NC(=O)/C(=C/c2cc(OC)c(OC)c(OC)c2)NC(=O)c2cc(OC)c(OC)c(OC)c2)cc1OC` [Compound 5f, N-((Z)-3-((E)-2-(1-(3,4-Dimethoxyphenyl)ethylidene)hydrazinyl)-3-oxo-1-(3,4,5-trimethoxyphenyl)prop-1-en-2-yl)-3,4,5-trimethoxybenzamide] gave a melting point of 234 to 236 °C. The half-maximal inhibitory concentration (IC50) in data set [1] (setting [3]) was 8.34 ± 1.22 µM.
For `COc1cc(/C=C(\NC(=O)c2cc(OC)c(OC)c(OC)c2)C(=O)N/N=C/c2ccc(N(C)C)cc2)cc(OC)c1OC` [Compound 4i, N-((Z)-3-((E)-2-(4-(Dimethylamino)benzylidene)hydrazinyl)-3-oxo-1-(3,4,5-trimethoxyphenyl)prop-1-en-2-yl)-3,4,5-trimethoxybenzamide], in that order: 243 to 245 °C and 3.46 ± 0.51 µM.
On to `COc1cc(/C=C(\NC(=O)c2cc(OC)c(OC)c(OC)c2)C(=O)N/N=C/c2cc(OC)c(OC)c(OC)c2)cc(OC)c1OC` [Compound 4l, 3,4,5-Trimethoxy-N-((Z)-3-oxo-3-((E)-2-(3,4,5-trimethoxybenzylidene)hydrazinyl)-1-(3,4,5-trimethoxyphenyl)prop-1-en-2-yl)benzamide], for which, in data set [1] (setting [3]), the IC50 worked out at 7.3 ± 0.64 µM.
For the compound `COc1cc(/C=C(\NC(=O)c2cc(OC)c(OC)c(OC)c2)C(=O)N/N=C/c2ccc(Cl)cc2)cc(OC)c1OC` [Compound 4b, N-((Z)-3-((E)-2-(4-Chlorobenzylidene)hydrazinyl)-3-oxo-1-(3,4,5-trimethoxyphenyl)prop-1-en-2-yl)-3,4,5-trimethoxybenzamide], the melting point fell in the range of 233 to 235 °C. Further, the 50% inhibitory concentration (IC50) in data set [1] (setting [3]) turned out to be 16.1 ± 0.83 µM.
`COc1cc(/C=C(\NC(=O)c2cc(OC)c(OC)c(OC)c2)C(=O)N/N=C(\C)c2ccc(Cl)cc2)cc(OC)c1OC` [Compound 5b, N-((Z)-3-((E)-2-(1-(4-Chlorophenyl)ethylidene)hydrazinyl)-3-oxo-1-(3,4,5-trimethoxyphenyl)prop-1-en-2-yl)-3,4,5-trimethoxybenzamide] yielded a melting point of 249 to 251 °C. In data set [1] (setting [3]), the IC50 came to 14 ± 1.19 µM.
For `COc1ccc(/C=C\c2cc(OC)c(OC)c(OC)c2)cc1O` [CA-4, combretastatin A-4, reference compound], the concentration for half-maximal inhibition (IC50) was determined as 8.86 ± 0.67 µM in data set [2] and 0.54 ± 0.04 µM in data set [1] (MDA-MB-231, read-out: IC50 Value (μM) MDA-MB-231).
`COc1cc(/C=C(\NC(=O)c2cc(OC)c(OC)c(OC)c2)C(=O)N/N=C(\C)c2ccc(Br)cc2)cc(OC)c1OC` [Compound 5c, N-((Z)-3-((E)-2-(1-(4-Bromophenyl)ethylidene)hydrazinyl)-3-oxo-1-(3,4,5-trimethoxyphenyl)prop-1-en-2-yl)-3,4,5-trimethoxybenzamide] returned a melting point of 244 to 246 °C. The IC50 in data set [1] (setting [3]) was 20.7 ± 1.84 µM.
For `COc1cc(/C=C(\NC(=O)c2cc(OC)c(OC)c(OC)c2)C(=O)N/N=C(\C)c2ccc(O)cc2)cc(OC)c1OC` [Compound 5d, N-((Z)-3-((E)-2-(1-(4-Hydroxyphenyl)ethylidene)hydrazinyl)-3-oxo-1-(3,4,5-trimethoxyphenyl)prop-1-en-2-yl)-3,4,5-trimethoxybenzamide], in that order: 258 to 260 °C and 1.98 ± 0.19 µM.
Regarding `COc1ccc(/C=N/NC(=O)/C(=C/c2cc(OC)c(OC)c(OC)c2)NC(=O)c2cc(OC)c(OC)c(OC)c2)cc1` [Compound 4g, 3,4,5-Trimethoxy-N-((Z)-3-((E)-2-(4-methoxybenzylidene)hydrazinyl)-3-oxo-1-(3,4,5-trimethoxyphenyl)prop-1-en-2-yl)benzamide], the melting point was in the range of 217 to 219 °C. The IC50 in data set [1] (setting [3]) turned out to be 3.43 ± 0.22 µM.
Take `C/C=N/NC(=O)/C(=C/c1cc(OC)c(OC)c(OC)c1)NC(=O)c1cc(OC)c(OC)c(OC)c1` [Compound 2, N-((Z)-3-((E)-2-Ethylidenehydrazinyl)-3-oxo-1-(3,4,5-trimethoxyphenyl)prop-1-en-2-yl)-3,4,5-trimethoxybenzamide]: the melting point fell in the range of 224 to 226 °C. Also, in data set [1] (setting [3]), the IC50 is 31.6 ± 1.07 µM.
As for `COc1cc(/C=N/NC(=O)/C(=C/c2cc(OC)c(OC)c(OC)c2)NC(=O)c2cc(OC)c(OC)c(OC)c2)ccc1O` [Compound 4j, N-((Z)-3-((E)-2-(4-Hydroxy-3-methoxybenzylidene)hydrazinyl)-3-oxo-1-(3,4,5-trimethoxyphenyl)prop-1-en-2-yl)-3,4,5-trimethoxybenzamide], the melting point lay in the range of 226 to 228 °C. In addition, the half-maximal inhibitory concentration (IC50) in data set [1] (setting [3]) came out at 2.84 ± 0.18 µM.
In the case of `COc1cc(/C=C(\NC(=O)c2cc(OC)c(OC)c(OC)c2)C(=O)N/N=C/c2ccc(C)cc2)cc(OC)c1OC` [Compound 4f, 3,4,5-Trimethoxy-N-((Z)-3-((E)-2-(4-methylbenzylidene)hydrazinyl)-3-oxo-1-(3,4,5-trimethoxyphenyl)prop-1-en-2-yl)benzamide], the melting point is 208 to 210 °C. For the same compound, in data set [1] (setting [3]), the IC50 worked out at 4.52 ± 0.36 µM.
On to `COc1ccc(/C(C)=N/NC(=O)/C(=C/c2cc(OC)c(OC)c(OC)c2)NC(=O)c2cc(OC)c(OC)c(OC)c2)cc1` [Compound 5e, 3,4,5-Trimethoxy-N-((Z)-3-((E)-2-(1-(4-methoxyphenyl)ethylidene)hydrazinyl)-3-oxo-1-(3,4,5-trimethoxyphenyl)prop-1-en-2-yl)benzamide], for which the melting point lay within 241 to 243 °C. In data set [1] (setting [3]), the IC50 is 9.52 ± 1.18 µM.
`COc1cc(/C=C(\NC(=O)c2cc(OC)c(OC)c(OC)c2)C(=O)N/N=C(\C)c2ccccc2)cc(OC)c1OC` [Compound 5a, 3,4,5-Trimethoxy-N-((Z)-3-oxo-3-((E)-2-(1-phenylethylidene)hydrazinyl)-1-(3,4,5-trimethoxyphenyl)prop-1-en-2-yl)benzamide] had a melting point of 260 to 262 °C. Further, in data set [1] (setting [3]), the IC50 came to 20.2 ± 0.89 µM.
Compound `COc1cc(/C=C(\NC(=O)c2cc(OC)c(OC)c(OC)c2)C(=O)N/N=C(\C)c2cc(OC)c(OC)c(OC)c2)cc(OC)c1OC` [Compound 5g, 3,4,5-Trimethoxy-N-((Z)-3-oxo-1-(3,4,5-trimethoxyphenyl)-3-((E)-2-(1-(3,4,5-trimethoxyphenyl)ethylidene)hydrazinyl)prop-1-en-2-yl)benzamide] had a melting point of 211 to 213 °C. The IC50 in data set [1] (setting [3]) was determined as 3.39 ± 0.26 µM.
With `COc1cc(/C=C(\NC(=O)c2cc(OC)c(OC)c(OC)c2)C(=O)N/N=C/c2ccccc2[N+](=O)[O-])cc(OC)c1OC` [Compound 4c, 3,4,5-Trimethoxy-N-((Z)-3-((E)-2-(2-nitrobenzylidene)hydrazinyl)-3-oxo-1-(3,4,5-trimethoxyphenyl)prop-1-en-2-yl)benzamide], the melting point fell in the range of 239 to 241 °C. For the same compound, the IC50 in data set [1] (setting [3]) turned out to be 38.8 ± 0.93 µM.
Compound `COc1cc(/C=C(\NC(=O)c2cc(OC)c(OC)c(OC)c2)C(=O)N/N=C/c2ccccc2O)cc(OC)c1OC` [Compound 4d, N-((Z)-3-((E)-2-(2-Hydroxybenzylidene)hydrazinyl)-3-oxo-1-(3,4,5-trimethoxyphenyl)prop-1-en-2-yl)-3,4,5-trimethoxybenzamide] yielded a melting point of 220 to 222 °C. In data set [1] (setting [3]), the half-maximal inhibitory concentration (IC50) came to 5.98 ± 0.28 µM.
